From patent US8524809B2, “Low odor compositions and methods to attain low odor compositions” (Rohm and Haas Company, priority 2010, dated 2013) come the findings set out here.

Assay [1] can be described thus: Esterase and nucleophilic reagent, larger scale vinyl acetate-acrylic latex. Conditions: VAc-acrylic latex, 50 ppm N51032 + 50 ppm reagent. The procedure: The combined effect of carboxylesterase (50 ppm N51032) and nucleophilic reagent (50 ppm in each case) was evaluated in a larger scale vinyl acetate-acrylic latex sample, Table 27, below. The combined addition was made into a 1 gallon reaction vessel, with stirring, after the polymer synthesis and chase, and while the contents were at 50° C. The contents were then allowed to cool and headspace concentrations were analyzed after 1 day at room temperature, and after 5 days at room temperature.

Assay [2] is described as follows: Nucleophilic reagents: aldehyde content in vinyl acetate-acrylic latex. Conditions: Rovace 9900 pre-treated 1 week with 50 ppm N51032; reagent 50 ppm, 55° C. 2 hours, then 1 week RT.
Procedure: The latex samples were first treated with a carboxylesterase enzyme (50 ppm of N51032) for 1 week to remove residual esters and also to convert residual vinyl acetate to acetaldehyde (the esterase produces vinyl alcohol, which rearranges to form acetaldehyde). Each sample was then stirred at 55° C. for 2 hours with the reagent shown below in Table 26 (added at a level of 50 ppm), and then left at room temperature for 1 week before evaluating levels of aldehyde in the headspace composition (GC-MS, 33° C.).
Assay [3] is described as follows: NaBH4 treatment: headspace composition of acrylic latex AC261. Particulars: 1 week, 500 ppm NaBH4 (with 60 ppm CALBL where combined). The procedure:
Headspace VOC content in aqueous compositions was determined by a method based on ASTM 3960: Standard Practice for Determining Volatile Organic Compound (VOC) Content of Paints and Related Coatings. This method uses static headspace sampling/GC-MS at 33° C. to determine the headspace concentrations of compounds above aqueous emulsion polymers or waterborne paints.
Weigh 5 g of each sample into 22 ml headspace vials with aluminum caps and crimp the cap tightly. Repeat the procedure with water blanks to be run, at a minimum, at the beginning and end of a sequence of samples. Analyze the samples via headspace GC-MS. Integrate all peaks in the resulting chromatogram that have a signal greater than five times the root-mean-square baseline noise. Once a satisfactory separation of the volatiles is achieved, mass spectral analysis and/or retention time matching against known compounds is used to identify the compounds detected. Determine the concentration of each calibrated compound in the sample headspace using the linear-least-squares equation from the calibration plot for that compound. Levels of the component in the headspace are reliable to 0.1 ppm by the GC-MS technique.

Take `O=C1CC(=O)NC(=O)N1` [B, barbituric acid]: in assay [1] (1 Day), the “Acetaldehyde Headspace Concentration” value came out at 237 ppm, the “Acetone Headspace Concentration” value turned out to be 392 ppm, the “Butyl acetate Headspace Concentration” value is recorded as 1 ppm and the “Ethanol Headspace Concentration” value came to 10 ppm. Also, in assay [1] (1 Day), the “Vinyl acetate Headspace Concentration” value came to 0 ppm, the “butanal Headspace Concentration” value amounted to 0.4 ppm, the “l-butanol Headspace Concentration” value came to 18 ppm and the “t-butanol Headspace Concentration” value is reported as 265 ppm. Moreover, in assay [1] (5 Days), the “Acetaldehyde Headspace Concentration” value was found to be 140 ppm, the “Acetone Headspace Concentration” value was 418 ppm, the “Butyl acetate Headspace Concentration” value was determined as 1 ppm and the “Ethanol Headspace Concentration” value came out at 23 ppm. Moreover, in assay [1] (5 Days), the “Vinyl acetate Headspace Concentration” value turned out to be 0 ppm, the “butanal Headspace Concentration” value is 0.6 ppm, the “l-butanol Headspace Concentration” value amounted to 21 ppm and the “t-butanol Headspace Concentration” value is 285 ppm. Also, in assay [2], the “Acetaldehyde Headspace Concentration” value came to 0 ppm, the “Acetone Headspace Concentration” value turned out to be 287 ppm, the “Ethanol Headspace Concentration” value was 26 ppm and the “butanal Headspace Concentration” value is reported as 0 ppm. Besides, in assay [2], the “l-butanol Headspace Concentration” value amounted to 53 ppm and the “t-butanol Headspace Concentration” value is 300 ppm.
For `[BH4-].[Na+]` [NaBH4, sodium borohydride], in assay [3], the “Level of 2-butenoic acid, butyl ester in headspace” value is 65 ppm; the “Level of 2-methyl-3-hexanone in headspace” value is recorded as 0 ppm; the “Level of Acetone in headspace” value was determined as 0 ppm; the “Level of Butanal in headspace” value was 0 ppm. In addition, in assay [3], the “Level of Isobutyraldehyde in headspace” value was 0 ppm, the “Level of benzaldehyde in headspace” value is reported as 0 ppm, the “Level of butyl acetate in headspace” value turned out to be 104 ppm and the “Level of butyl acrylate in headspace” value is listed as 67 ppm. Besides, in assay [3], the “Level of butyl propionate in headspace” value was 207 ppm and the “Level of methyl isobutyrate in headspace” value turned out to be 17 ppm.
